Assay results from ChEMBL document CHEMBL1122857, “A uniquely potent renin inhibitor and its unanticipated plasma binding component” (J Med Chem, 1985).
Non-standard residues stand in square brackets, D forms with d. Residues, ends and D or L forms follow the SMILES beside them. *: point of attachment. Sta = CC(C)C[C@H](N)[C@@H](O)CC(=O)O; X1 = c1ccc(CN2CCC(N*)CC2)cc1; Boc = CC(C)(C)OC(=O)*

How the values were obtained:
Renin (Sus scrofa) = assay: Compound was tested for inhibition of hog kidney renin; details: read-out: I50
Renin [1] = target: T1, Renin (Homo sapiens, UniProt P00797); assay: Compound was tested for inhibition of human kidney renin
T1 sequence (P00797 whole entry): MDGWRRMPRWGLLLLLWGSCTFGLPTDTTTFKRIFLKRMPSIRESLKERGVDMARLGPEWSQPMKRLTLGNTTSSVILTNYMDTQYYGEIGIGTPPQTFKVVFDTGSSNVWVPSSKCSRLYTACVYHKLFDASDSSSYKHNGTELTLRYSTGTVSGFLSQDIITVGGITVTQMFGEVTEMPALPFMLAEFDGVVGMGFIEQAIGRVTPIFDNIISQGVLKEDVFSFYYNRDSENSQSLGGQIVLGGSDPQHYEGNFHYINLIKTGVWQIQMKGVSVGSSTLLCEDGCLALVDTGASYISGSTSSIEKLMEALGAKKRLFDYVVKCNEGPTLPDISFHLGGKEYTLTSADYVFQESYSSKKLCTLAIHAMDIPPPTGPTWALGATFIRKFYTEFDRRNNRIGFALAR

Renin [2] = target: T1, Renin; assay: (§1) Compound was tested for inhibition of human plasma renin; format: cell-free; details: read-out: I50
Renin (Homo sapiens) = target: T2, Renin (Homo sapiens) (UniProt P00797); assay: as §1; format: cell-free; details: concentration not given here
T2 sequence (whole entry): T1 sequence (P00797 whole entry)

| IC50 (Renin (Sus scrofa)) [nM] | Ki (Renin [1]) [nM] | IC50 (Renin [2]) [nM] | inhibition (Renin (Homo sapiens)) [%] | Compound |
| --- | --- | --- | --- | --- |
| 88 | 4.8 |  |  | CC(C)C[C@H](NC(=O)C[C@H](O)[C@H](CC(C)C)NC(=O)[C@H](Cc1ccccc1)NC(=O)[C@H](Cc1ccccc1)NC(=O)OC(C)(C)C)C(=O)N[C@@H](Cc1ccccc1)C(N)=O (Boc-FF[Sta]LF-NH2) |
| 269 | 0.064 | 25 |  | CC(C)C[C@H](NC(=O)C[C@H](O)[C@H](CC(C)C)NC(=O)[C@H](Cc1c[nH]cn1)NC(=O)[C@H](Cc1ccccc1)NC(=O)OC(C)(C)C)C(=O)NC1CCN(Cc2ccccc2)CC1 (Boc-FH[Sta]L-X1) |
| 858 | 0.026 | 1000 | 37 | CC(C)C[C@@H](CNCc1ccccc1)NC(=O)C[C@H](O)[C@H](CC(C)C)NC(=O)[C@H](Cc1ccccc1)NC(=O)[C@H](Cc1ccccc1)NC(=O)OC(C)(C)C |
